Measurements taken from US8362070B2, “Application of puerarin in the preparation of P2X3 mediated drugs for pain/nervous system diseases” (Nanchang University, priority 2009, dated 2013).

Assays:
Format in all cases: in vivo, rat
[1] = test system: rats that suffer from superficial second degree foot burn; experiment: Thermal hyperalgesia (thermal withdrawal latency) in rats with foot burn; settings: for thermal withdrawal latency (TWL) in comparison to group III (burn) / thermal withdrawal latency (TWL) after 144 hours: superficial second degree foot burn + drug; for thermal withdrawal latency (TWL) in comparison to group III (burn): 24 hours after burn, p<0.01
Source text: Male SD rats, 220-250 g, 60 rats were included, which were provided by the Department of Experimental Animals from the Medical College of Nanchang University, and the animals were divided into different groups at random. Group I was the group of sham burn in skin of feet; group II was the group of puerarin injection+first degree or superficial second degree burn in skin of feet; group III was the group of physiological saline+first degree or superficial second degree burn in skin of feet; group IV was the group of sham burn in skin of back; group V was the group of puerarin injection+first degree or superficial second degree burn in skin of back; group VI was the group of physiological saline+first degree or superficial second degree burn in skin of back. Puerarin injection was dissolved in physiological saline and the concentration was 50 mg/mL. vena caudalis injection of 4 mL/kg physiological saline was carried out for the rats in group III and […] 0.5 h before burn, and the injection was carried out once a day until the termination of the test; […], and the injection was carried out once a day until the termination of the test; skin of feet or back of the rats from group I and group IV (the sham burn group) were immersed in warm water of 37° C. for 8 seconds.
After the rats were anesthetized by ether, their right posterior feet were immersed in hot water of 70° C. for 5 seconds or 8 seconds, then they were raised in separate cages after burn. The mechanical withdrawal threshold and the thermal withdrawal threshold in their right posterior feet were measured respectively before burn (Oh) and 1, 24, 48, 72, 96, 120, 144 hours after burn (the room temperature was maintained at 22±0.5° C.).
The organic glass box was placed on a glass plate of 3 mm thick and BME-410C type automatic thermalgia stimulator was used to irradiate the footplates of rats. The time for the appearance of leg withdrawal after the irradiation on footplates of rats by using the thermal radiation stimulator was considered as the thermal withdrawal latency (TWL). The time for cutting off was 25 seconds in order to prevent burn on tissues.
(§1) The organic glass box was placed on a glass plate of 3 mm thick and BME-410C type automatic thermalgia stimulator (Institute of Biomedical Engineering, Chinese Academy of Medical Sciences) was used to irrdiate the footplates of rats. The time for the appearance of leg withdrawal after the irradiation on footplates of rats by using the thermal radiation stimulator was considered as the thermal withdrawal latency. The time for cutting off was 30 seconds in order to prevent burn on tissues.

[2] = test system: rats that suffer from neuropathic pain (chronic constriction injury of sciatic nerve); experiment: Thermal hyperalgesia (thermal withdrawal latency) in rats with neuropathic pain (CCI); settings: for thermal withdrawal latency (TWL) in comparison with group III (CCI): CCI rats, puerarin i.p. 50 mg/mL, 4 mL/kg daily, idomethine 4 mg/kg/d i.p. (seven days after ligation), p<0.01
Protocol: Male SD rats, 220-250 g were provided by the Department of Experimental Animals from the Medical College of Nanchang University. The rats were divided into […] at random and 12 rats were included in each group. Experimental grouping: I (sham); II (puerarin); III (chronic constriction injuries, CCI); IV (CCI+puerarin); V (control); VI (CCI+Indo). The puerarin injection was dissolved in physiological saline and the concentration was 50 mg/mL. Group I were subjected to intraperitoneal injection of physiological saline (4 mL/kg); Group II were subjected to intraperitoneal injection of puerarin injection (4 mL/kg); Skins of the […] were cut open and their sciatic nerves were exposed, then their skin was sew up without ligating nerves. Group IV were subjected to intraperitoneal injection of puerarin injection (4 mL/kg) everyday on the first day after CCI operation. Intraperitoneal injection of idomethine (4 mg/kg/d) was carried out on the rats in […] half an hour before the operation and after the operation everyday, and the injection was carried out once a day until the test was finished.
(§2) Thiopental sodium was used to anesthetize the rats (30 mg/kg, intraperitoneal injection), and the skin in the outer side of right thighs of the rats was cut open under sterile conditions, and blunt dissection was carried out to isolate the sciatic nerves, then the sciatic nerves were slightly ligated with 4-0 chromicized catgut and four ligations were carried out in total, and an interval of about 1 mm was left between two knots. […] The rats were raised in separate cages after the operation, and mechanical withdrawal threshold and thermal withdrawal latency were determined before the operation (0 d) and 1, 3, 5, 7, 9, 11, 14 days after the operations respectively (Time for the determination is set at 10[…]00-14[…]100 everyday, and the room temperature was maintained at 22±0.5° C.).
as §1, with “irradiate” for “irrdiate”, “latency (TWL).” for “latency.”

P2X3 receptor = experiment: Immunohistochemistry of P2X3 receptor expression in skin nerve ending of rats with back burn; settings: superficial second degree back burn + puerarin injection i.v. daily for three days; saline+burn 152.63±22.62, sham 118.76±18.48
[3] = test system: rats that suffer from neuropathic pain (chronic constriction injury of sciatic nerve); experiment: Mechanical hyperalgesia (mechanical withdrawal threshold, Von Frey) in rats with neuropathic pain (CCI)
Protocol: Male SD rats, 220-250 g were provided by the Department of Experimental Animals from the Medical College of Nanchang University. The rats were divided into five groups at random and 12 rats were included in each group. Experimental grouping: I (sham); II (puerarin); III (chronic constriction injuries, CCI); IV (CCI+puerarin); V (control); VI (CCI+Indo). The puerarin injection was dissolved in physiological saline and the concentration was 50 mg/mL. […]
as §2, with “C.). […]” for “C.).”

## COc1ccc2c(c1)c(CC(=O)O)c(C)n2C(=O)c1ccc(Cl)cc1 [Indocin, Indometacin]
[1]
  thermal withdrawal latency (TWL) in comparison to group III (burn): significantly increased
[1]; p>0.05
  thermal withdrawal latency (TWL) after 144 hours: almost recovered to normal level
[2]
  thermal withdrawal latency (TWL) in comparison with group III (CCI): increased

## O=c1c(-c2ccc(O)cc2)coc2c([C@@H]3O[C@H](CO)[C@@H](O)[C@H](O)[C@H]3O)c(O)ccc12 [puerarin]
[1]; puerarin alone i.p., no burn, p>0.05
  thermal withdrawal latency, comparison among sham, puerarin alone and control: no significant difference
[1]
  thermal withdrawal latency (TWL) in comparison to group III (burn): significantly increased
[1]; p>0.05
  thermal withdrawal latency (TWL) after 144 hours: almost recovered to normal level
[2]; CCI rats + puerarin, 14 days, p>0.05
  thermal withdrawal latency, difference from group V (control) after 14 days: not statistically significant
[2]
  thermal withdrawal latency (TWL) in comparison with group III (CCI): significantly increased
[2]; puerarin alone, no CCI, p>0.05
  thermal withdrawal latency, difference among sham, puerarin alone and control: not significant
P2X3 receptor
  gray scale values (average optical density) of P2X3 immunologically positive nerve ending in the skin: 130.42±13.35
[3]; CCI rats + puerarin, seven days after ligation, p<0.01
  mechanical withdrawal threshold (MWT) in comparison with group III (CCI): significantly increased
[3]; puerarin alone, no CCI, p>0.05
  mechanical withdrawal threshold, difference among sham, puerarin alone and control: not significant
